Source: PubChem BioAssay AID652090 (Broad Institute, 2013)

What was measured:
Assay in all cases: protein binders identified by SILAC affinity pulldown, late-stage follow-up, mechanism study for beta-cell protection project, cell lysate, INS-1E, SILAC competition, mass spectrometry (AID 652090)
[1] = target: Adenosylhomocysteinase (Rattus norvegicus) (UniProt P10760); conditions: INS-1E SILAC affinity pulldown, competition MS ratio; Ahcy; stronger effect = higher value
Ahcy = conditions: INS-1E SILAC affinity pulldown, competition MS ratio, enrichment significance, stronger effect = lower value
Ap3b2 = conditions: INS-1E SILAC affinity pulldown, competition MS ratio
Blvrb = conditions: INS-1E SILAC affinity pulldown, competition MS ratio
Cand1 = conditions: INS-1E SILAC affinity pulldown, competition MS ratio
Cand2 [2] = target: Cand2 (UniProt Q9R0L4); conditions: INS-1E SILAC affinity pulldown, competition MS ratio, stronger effect = higher value
Cand2 [3] = conditions: INS-1E SILAC affinity pulldown, competition MS ratio, enrichment significance, stronger effect = lower value
Gapdh = conditions: INS-1E SILAC affinity pulldown, competition MS ratio, enrichment significance, stronger effect = lower value
[4] = target: Glyceraldehyde-3-phosphate dehydrogenase (Rattus norvegicus) (UniProt P04797); conditions: INS-1E SILAC affinity pulldown, competition MS ratio; Gapdh; stronger effect = higher value
Ipo4 = conditions: INS-1E SILAC affinity pulldown, competition MS ratio
Ipo9 = conditions: INS-1E SILAC affinity pulldown, competition MS ratio
LOC303448 = conditions: INS-1E SILAC affinity pulldown, competition MS ratio
Lrpprc [5] = target: Lrpprc (UniProt Q5SGE0); conditions: INS-1E SILAC affinity pulldown, competition MS ratio, stronger effect = higher value
Lrpprc [6] = conditions: INS-1E SILAC affinity pulldown, competition MS ratio, enrichment significance, stronger effect = lower value
Mcm6 [7] = target: Mcm6 (UniProt Q62724); conditions: INS-1E SILAC affinity pulldown, competition MS ratio, stronger effect = higher value
Mcm6 [8] = conditions: INS-1E SILAC affinity pulldown, competition MS ratio, enrichment significance, stronger effect = lower value
RGD1309903 = conditions: INS-1E SILAC affinity pulldown, competition MS ratio
Retsat [9] = target: Retsat (UniProt Q8VHE9); conditions: INS-1E SILAC affinity pulldown, competition MS ratio, stronger effect = higher value
Retsat [10] = conditions: INS-1E SILAC affinity pulldown, competition MS ratio, enrichment significance, stronger effect = lower value
Tbc1d15 = conditions: INS-1E SILAC affinity pulldown, competition MS ratio
Timm44 [11] = target: Timm44 (UniProt O35094); conditions: INS-1E SILAC affinity pulldown, competition MS ratio, stronger effect = higher value
Timm44 [12] = conditions: INS-1E SILAC affinity pulldown, competition MS ratio, enrichment significance, stronger effect = lower value
Usp9x = conditions: INS-1E SILAC affinity pulldown, competition MS ratio
Xpo1 [13] = target: Xpo1 (UniProt Q80U96); conditions: INS-1E SILAC affinity pulldown, competition MS ratio, stronger effect = higher value
Xpo1 [14] = conditions: INS-1E SILAC affinity pulldown, competition MS ratio, enrichment significance, stronger effect = lower value
[15] = enrichment significance, stronger effect = lower value

Cand2 (UniProt Q9R0L4), sequence (Q9R0L4 whole entry, looked up): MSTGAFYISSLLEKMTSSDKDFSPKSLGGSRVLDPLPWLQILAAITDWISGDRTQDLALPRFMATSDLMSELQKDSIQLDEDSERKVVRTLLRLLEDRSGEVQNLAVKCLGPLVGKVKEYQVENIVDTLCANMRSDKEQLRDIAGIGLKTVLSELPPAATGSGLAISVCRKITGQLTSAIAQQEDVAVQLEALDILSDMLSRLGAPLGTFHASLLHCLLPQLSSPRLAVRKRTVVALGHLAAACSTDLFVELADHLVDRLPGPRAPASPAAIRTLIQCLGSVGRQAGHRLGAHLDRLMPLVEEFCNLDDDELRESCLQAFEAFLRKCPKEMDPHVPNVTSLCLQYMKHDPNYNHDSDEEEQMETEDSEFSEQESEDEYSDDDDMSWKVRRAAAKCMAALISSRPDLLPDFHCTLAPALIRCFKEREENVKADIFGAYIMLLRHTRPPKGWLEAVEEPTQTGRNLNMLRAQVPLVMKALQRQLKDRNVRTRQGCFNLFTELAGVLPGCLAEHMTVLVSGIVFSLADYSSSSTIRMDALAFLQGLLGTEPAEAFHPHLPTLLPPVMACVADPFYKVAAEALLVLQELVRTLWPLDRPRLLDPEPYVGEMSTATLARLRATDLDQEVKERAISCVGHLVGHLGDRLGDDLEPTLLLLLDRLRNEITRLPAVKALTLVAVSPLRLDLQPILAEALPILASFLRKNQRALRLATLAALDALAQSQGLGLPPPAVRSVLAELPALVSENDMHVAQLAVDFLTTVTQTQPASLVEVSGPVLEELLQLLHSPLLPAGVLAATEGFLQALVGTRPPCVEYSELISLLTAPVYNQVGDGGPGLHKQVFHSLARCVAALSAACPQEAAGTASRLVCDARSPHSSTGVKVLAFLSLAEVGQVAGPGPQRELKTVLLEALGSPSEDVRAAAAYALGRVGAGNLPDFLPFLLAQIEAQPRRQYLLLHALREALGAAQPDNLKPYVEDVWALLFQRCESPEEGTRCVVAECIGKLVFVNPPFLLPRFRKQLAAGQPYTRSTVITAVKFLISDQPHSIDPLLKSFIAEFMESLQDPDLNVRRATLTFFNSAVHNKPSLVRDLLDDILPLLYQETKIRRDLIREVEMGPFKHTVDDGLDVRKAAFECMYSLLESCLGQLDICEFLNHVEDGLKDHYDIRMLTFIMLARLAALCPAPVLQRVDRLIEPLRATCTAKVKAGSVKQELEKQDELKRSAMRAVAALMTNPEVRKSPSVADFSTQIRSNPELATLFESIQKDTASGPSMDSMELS
Mcm6 (UniProt Q62724), sequence (Q62724 whole entry, looked up): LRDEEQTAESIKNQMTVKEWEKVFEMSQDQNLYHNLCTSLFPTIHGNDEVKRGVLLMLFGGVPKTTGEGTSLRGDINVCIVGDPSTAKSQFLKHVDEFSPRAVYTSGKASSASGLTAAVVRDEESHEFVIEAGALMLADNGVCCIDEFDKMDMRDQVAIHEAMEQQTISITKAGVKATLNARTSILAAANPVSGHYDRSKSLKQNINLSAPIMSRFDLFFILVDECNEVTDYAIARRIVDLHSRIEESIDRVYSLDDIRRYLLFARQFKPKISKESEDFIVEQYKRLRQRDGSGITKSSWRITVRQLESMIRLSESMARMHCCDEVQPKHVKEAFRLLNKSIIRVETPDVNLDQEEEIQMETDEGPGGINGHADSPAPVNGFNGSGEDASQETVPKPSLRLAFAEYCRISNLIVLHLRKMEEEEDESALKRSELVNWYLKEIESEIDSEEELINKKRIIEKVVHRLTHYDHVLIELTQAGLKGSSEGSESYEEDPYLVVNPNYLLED
Timm44 (UniProt O35094), sequence (O35094 whole entry, looked up): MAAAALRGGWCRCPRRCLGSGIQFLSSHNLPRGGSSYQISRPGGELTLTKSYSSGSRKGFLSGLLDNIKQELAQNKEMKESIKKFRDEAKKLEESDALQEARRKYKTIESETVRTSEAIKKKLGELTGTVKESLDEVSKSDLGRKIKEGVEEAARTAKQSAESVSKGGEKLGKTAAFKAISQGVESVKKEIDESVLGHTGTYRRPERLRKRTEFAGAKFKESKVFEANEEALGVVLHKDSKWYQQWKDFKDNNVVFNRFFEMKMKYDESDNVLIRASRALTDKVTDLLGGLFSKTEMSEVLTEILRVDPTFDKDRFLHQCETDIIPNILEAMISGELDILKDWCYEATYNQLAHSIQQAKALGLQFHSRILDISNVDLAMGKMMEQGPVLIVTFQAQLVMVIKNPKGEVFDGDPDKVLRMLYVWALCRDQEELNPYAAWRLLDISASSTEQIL
Retsat (UniProt Q8VHE9), sequence (Q8VHE9 whole entry, looked up): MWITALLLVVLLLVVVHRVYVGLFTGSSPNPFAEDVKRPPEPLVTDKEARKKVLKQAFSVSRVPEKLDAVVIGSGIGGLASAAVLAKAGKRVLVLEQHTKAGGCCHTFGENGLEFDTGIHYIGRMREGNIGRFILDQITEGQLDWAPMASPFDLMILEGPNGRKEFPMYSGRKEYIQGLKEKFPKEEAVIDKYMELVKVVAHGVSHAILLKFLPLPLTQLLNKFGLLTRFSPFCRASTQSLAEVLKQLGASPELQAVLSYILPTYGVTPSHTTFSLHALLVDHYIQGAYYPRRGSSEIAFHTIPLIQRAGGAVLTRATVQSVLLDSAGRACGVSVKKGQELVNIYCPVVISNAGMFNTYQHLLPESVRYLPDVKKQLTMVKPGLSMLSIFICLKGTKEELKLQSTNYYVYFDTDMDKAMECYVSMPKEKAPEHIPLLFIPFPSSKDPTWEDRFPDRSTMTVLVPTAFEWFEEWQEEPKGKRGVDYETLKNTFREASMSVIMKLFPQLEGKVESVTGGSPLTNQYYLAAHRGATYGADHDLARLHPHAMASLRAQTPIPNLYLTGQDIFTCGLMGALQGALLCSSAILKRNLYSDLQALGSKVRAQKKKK
Lrpprc (UniProt Q5SGE0), sequence (Q5SGE0 whole entry, looked up): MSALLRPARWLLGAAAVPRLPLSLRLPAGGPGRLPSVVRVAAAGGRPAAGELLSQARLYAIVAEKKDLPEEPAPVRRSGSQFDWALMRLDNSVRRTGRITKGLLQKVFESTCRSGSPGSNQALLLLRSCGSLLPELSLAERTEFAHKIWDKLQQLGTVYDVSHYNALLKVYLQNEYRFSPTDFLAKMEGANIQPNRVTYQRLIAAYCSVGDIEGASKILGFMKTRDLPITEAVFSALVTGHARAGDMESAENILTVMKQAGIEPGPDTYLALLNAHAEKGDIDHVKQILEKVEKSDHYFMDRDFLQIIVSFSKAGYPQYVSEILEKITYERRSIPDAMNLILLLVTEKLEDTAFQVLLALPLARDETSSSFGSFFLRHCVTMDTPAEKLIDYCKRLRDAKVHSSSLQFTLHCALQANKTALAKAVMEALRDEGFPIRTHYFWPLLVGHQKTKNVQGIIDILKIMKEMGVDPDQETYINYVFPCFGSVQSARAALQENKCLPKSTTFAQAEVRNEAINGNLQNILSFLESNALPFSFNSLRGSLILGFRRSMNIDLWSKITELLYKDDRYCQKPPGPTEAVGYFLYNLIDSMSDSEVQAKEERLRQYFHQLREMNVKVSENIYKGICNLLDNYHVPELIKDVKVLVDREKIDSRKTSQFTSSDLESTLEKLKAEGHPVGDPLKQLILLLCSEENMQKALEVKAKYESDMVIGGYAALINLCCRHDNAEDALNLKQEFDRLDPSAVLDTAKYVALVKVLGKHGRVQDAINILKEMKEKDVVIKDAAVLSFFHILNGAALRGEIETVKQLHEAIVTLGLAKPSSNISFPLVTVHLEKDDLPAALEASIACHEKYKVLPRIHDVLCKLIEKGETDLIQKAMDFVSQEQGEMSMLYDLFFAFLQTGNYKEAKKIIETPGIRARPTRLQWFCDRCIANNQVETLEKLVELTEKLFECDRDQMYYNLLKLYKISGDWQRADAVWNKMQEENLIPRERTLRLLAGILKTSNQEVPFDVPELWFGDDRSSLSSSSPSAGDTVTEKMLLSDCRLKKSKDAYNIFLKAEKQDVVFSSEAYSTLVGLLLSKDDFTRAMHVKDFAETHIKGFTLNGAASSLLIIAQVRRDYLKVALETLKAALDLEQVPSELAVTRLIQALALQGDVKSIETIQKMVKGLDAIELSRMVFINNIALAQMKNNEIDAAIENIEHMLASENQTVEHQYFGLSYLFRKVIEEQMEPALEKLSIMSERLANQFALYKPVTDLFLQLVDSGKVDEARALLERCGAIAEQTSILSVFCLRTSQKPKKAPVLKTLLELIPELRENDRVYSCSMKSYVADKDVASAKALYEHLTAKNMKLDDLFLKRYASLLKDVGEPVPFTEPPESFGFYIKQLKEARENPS
Glyceraldehyde-3-phosphate dehydrogenase (Rattus norvegicus), sequence (P04797 whole entry, looked up): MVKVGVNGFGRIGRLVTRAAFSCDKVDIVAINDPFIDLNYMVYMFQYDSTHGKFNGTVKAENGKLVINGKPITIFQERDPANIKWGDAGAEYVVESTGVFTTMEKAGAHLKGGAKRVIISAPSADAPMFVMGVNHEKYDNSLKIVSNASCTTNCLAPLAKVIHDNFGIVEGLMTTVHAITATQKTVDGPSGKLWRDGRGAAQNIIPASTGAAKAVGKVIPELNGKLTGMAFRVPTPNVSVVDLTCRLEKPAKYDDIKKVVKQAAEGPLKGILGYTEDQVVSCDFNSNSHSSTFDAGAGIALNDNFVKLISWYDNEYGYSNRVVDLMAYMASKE
Adenosylhomocysteinase (Rattus norvegicus), sequence (P10760 whole entry, looked up): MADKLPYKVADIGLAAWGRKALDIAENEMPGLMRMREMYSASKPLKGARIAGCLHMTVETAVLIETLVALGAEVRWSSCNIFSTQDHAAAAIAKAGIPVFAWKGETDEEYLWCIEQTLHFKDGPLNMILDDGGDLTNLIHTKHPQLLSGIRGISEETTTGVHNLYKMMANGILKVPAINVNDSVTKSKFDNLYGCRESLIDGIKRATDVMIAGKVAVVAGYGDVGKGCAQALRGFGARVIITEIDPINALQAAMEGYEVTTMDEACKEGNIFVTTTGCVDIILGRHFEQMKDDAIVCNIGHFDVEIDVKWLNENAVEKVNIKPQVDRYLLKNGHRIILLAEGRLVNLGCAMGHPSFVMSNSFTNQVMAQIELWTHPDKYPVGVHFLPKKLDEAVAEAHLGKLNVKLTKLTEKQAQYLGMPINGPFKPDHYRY

log2 SILAC competition ratio [1]: 0.72 | log2 SILAC competition ratio (Cand2 [2]): 0.496 | log2 SILAC competition ratio [4]: 0.72 | log2 SILAC competition ratio (Lrpprc [5]): 0.64 | log2 SILAC competition ratio (Mcm6 [7]): 1.63 | log2 SILAC competition ratio (Retsat [9]): 0.58 | log2 SILAC competition ratio (Timm44 [11]): 0.52 | log2 SILAC competition ratio (Xpo1 [13]): 0.56
SMILES: C[C@@H]1CN([C@@H](C)CO)C(=O)c2cccc(NC(=O)Nc3cccc4ccccc34)c2O[C@H]1CN(C)S(=O)(=O)c1ccc2c(c1)OCCO2
p-value (Ahcy): 8.65e-05 | p-value (Ap3b2; [15]): 1.01e-06 | log2 SILAC competition ratio (Ap3b2; stronger effect = higher value): 0.84 | p-value (Blvrb; [15]): 7.19e-23 | log2 SILAC competition ratio (Blvrb; stronger effect = higher value): 1.52 | p-value (Cand1; [15]): 7.49e-06 | log2 SILAC competition ratio (Cand1; stronger effect = higher value): 0.78 | p-value (Cand2 [3]): 0.0511 | p-value (Gapdh): 7.85e-05 | p-value (Ipo4; [15]): 0.000164 | log2 SILAC competition ratio (Ipo4; stronger effect = higher value): 0.7 | p-value (Ipo9; [15]): 0.00514 | log2 SILAC competition ratio (Ipo9; stronger effect = higher value): 0.58 | p-value (LOC303448; [15]): 3.33e-05 | log2 SILAC competition ratio (LOC303448; stronger effect = higher value): 0.74 | p-value (Lrpprc [6]): 0.00102 | p-value (Mcm6 [8]): 2.29e-26 | p-value (RGD1309903; [15]): 0.000418 | log2 SILAC competition ratio (RGD1309903; stronger effect = higher value): 0.67 | p-value (Retsat [10]): 0.00538 | p-value (Tbc1d15; [15]): 6.97e-05 | log2 SILAC competition ratio (Tbc1d15; stronger effect = higher value): 0.72 | p-value (Timm44 [12]): 0.0266 | p-value (Usp9x; [15]): 2.07e-09 | log2 SILAC competition ratio (Usp9x; stronger effect = higher value): 0.98 | p-value (Xpo1 [14]): 0.0109
